A short description of series [1]: Solubility of amphiphilic compound in pure water. The series is classed as physicochemical.
Series [2] can be described thus: Compatibility / phase separation of amphiphilic compound with amphiphilic surfactant system in water (microscope, visual appearance). It is filed as physicochemical. As to conditions: concentrations as in the label, SLES alone at 12 wt. %. How it is done:
Further, in certain embodiments, the amphiphilic compound forms a separate phase from the amphiphilic surfactant system when the amphiphilic surfactant system and the amphiphilic compound are combined in water. In this respect, the separate phase is determined by combining from 5 wt. % up to 70 wt. % of a total concentration of the amphiphilic compound and the amphiphilic surfactant system, based on a total weight of the amphiphilic compound, the amphiphilic surfactant system, and water totaling 100 wt. %, with the ratio of the amphiphilic surfactant system to the amphiphilic compound ranging from 99:1 to 50:50, preferably from 90:10 to 60:40, more preferably from 80:20 to 70:30, and determining whether any objects larger than 150 nm are observed using a conventional microscope, preferably an Olympus IX71 conventional microscope, equipped with 100× oil objective.
With respect to the amphiphilic compounds being immiscible with a combination of the amphiphilic surfactant system and water, the amphiphilic compounds can form a separate phase from the amphiphilic surfactant system in water at 25° C. […]
The interfacial tension was measured using Sigma 701 tensiometer, and compatibility was observed using Olympus IX71 conventional microscope equipped with 100× oil objective, as described above.

Results on four compounds are retold here after patent publication US20240299273A1, “MULTIPHASIC LIQUID COMPOSITIONS FOR IMPROVED DEPOSITION OF ACTIVE INGREDIENTS” (SPECIALITY OPERATIONS FRANCE, priority 2021, published 2024).

`CCCCCCCCCCCCCCCCCC(=O)OCC[N+](C)(C)CCOC(=O)CCCCCCCCCCCCCCCCC.[Cl-]` [DEEDMAC, Dimethylbis[2-[(1-oxooctadecyl)oxy]ethyl]ammonium chloride]: the solubility in water in series [1] is less than 1 wt %).
Take “sodium laureth sulfate [sodium laureth sulfate (SLES)]”: in series [2], the “visual appearance (FIG. 2)” value is “transparent, and therefore, no phase separation”.
The compound `CCCCCCCCCCCCCOC(=O)CC(C(=O)OCCCCCCCCCCCCC)S(=O)(=O)O.[Na]` (stereo not shown) [Sodium bis(tridecyl) sulfosuccinate] showed a solubility in water in series [1] of less than 1 wt %).
`CCCCCCCCCC[N+](C)(C)CCCCCCCCCC.[Cl-]` [Maquat 4450, didecyldimethylammonium chloride]: the “solubility in water (in words)” value in series [1] is listed as “high water solubility”.
